Consider 2 compounds from the supplement of paper PMC10883282.

What all share (test): standardised AUC of viability dose-response curve (72 h) (fraction (0-1)); higher = less growth inhibition (more resistant)
The subject of one assay is SW1353. The procedure, abridged:
(§1)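 Sarcoma cell lines in 384-well plates were treated in triplicate for 72 h with 2.5 µl of a compound dilution series, made in 1:3 steps from 10 mM to 0.0002 mM on the compound plate. ATPLite viability was scaled from 1 (full) to 0 (none) and fitted per drug and cell line with a four-parameter log-logistic model. The values are standardised areas under the dose-response curve in log-dose space, from a modified drexplorer computeAUC. On that scale, 1 means no response and 0 means full response.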

In the next assay the test system is A204. The procedure, abridged: as §1
The subject of another assay is HT1080. The procedure, abridged: as §1
The test system of a further assay is SW982. The procedure, abridged:
as §1

In the next assay the test system is SYO-1. The procedure, abridged: as §1
The next assay relates to G401. The procedure, abridged: as §1
Another assay concerns SW684. The procedure, abridged:
as §1

A further assay concerns VA-ES-BJ. The procedure, abridged: as §1
For a further assay, the system named is SK-LMS-1. The procedure, abridged:
as §1

The next assay has as its system SW872. The procedure, abridged:
as §1

For the next assay, the system named is HS729. The procedure, abridged:
as §1

The subject of another assay is RD. The procedure, abridged:
as §1

In another assay the test system is KHOS-NP. The procedure, abridged: as §1
In a further assay the test system is RD-ES. The procedure, abridged: as §1
For a further assay, the system named is MES-SA. The procedure, abridged:
as §1

For the next assay, the system named is SK-ES-1. The procedure, abridged: as §1
The subject of the next assay is KHOS-240S. The procedure, abridged: as §1

As to `O=C(Cc1ccc(-c2ccc(OCCN3CCOCC3)cc2)cn1)NCc1ccccc1` [KX2-391], the “standardised AUC” value was 0.752 in the assay on SW1353; 0.677 with A204; 0.579 in the assay with HT1080; 0.63 in the assay on SW982; 0.668 in the assay with SYO-1; 0.729 in the assay on G401. Also, the “standardised AUC” value in the assay with SW684 was 0.827; in the assay on VA-ES-BJ, 0.632; in the assay with SK-LMS-1 it was 0.676; in the assay on SW872, 0.733; in the assay on HS729, 0.742; in the assay with RD, 0.636. The “standardised AUC” value was found to be 0.72 in the assay on KHOS-NP; 0.539 with RD-ES; 0.57 with MES-SA; 0.484 in the assay on SK-ES-1; 0.609 in the assay on KHOS-240S.
On to `C[C@@H]1COCCN1c1cc(-c2ccnn2C)c2ccnc(-c3ccn[nH]3)c2n1`, for which the “standardised AUC” value in the assay on SW1353 was found to be 0.791; in the assay on A204, 0.689; in the assay on HT1080, 0.686; with SW982, 0.615; in the assay with SYO-1 it was 0.606; in the assay on G401, 0.819. Further, the “standardised AUC” value in the assay with SW684 is 0.828; with VA-ES-BJ, 0.626; with SK-LMS-1, 0.751; in the assay on SW872, 0.706; in the assay with HS729, 0.782; in the assay on RD, 0.75. The “standardised AUC” value worked out at 0.826 with KHOS-NP; 0.673 with RD-ES; 0.641 in the assay on MES-SA; 0.637 with SK-ES-1; 0.603 in the assay on KHOS-240S.
